# Patent US20240066136A1, “MODIFIED PROTEINS AND PROTEIN DEGRADERS” (Cullgen (Shanghai), Inc., priority 2020, published 2024)
# pKd: −log10 of the molar value. Ends that are not written are not given here.
# Target: Human DDB1 (Homo sapiens (Human), UniProt Q16531)
# Assay: Surface plasmon resonance (SPR) binding assay to immobilized His-DDB1
# Details: not given
# Method: The binding affinities of heterobifunctional compounds to DDB1 were determined by SPR assay. Purified His-DDB1 proteins were immobilized on a CM5 sensor chip, and a dose range of compound solutions were injected in multi-cycle kinetic format. Data were fit to steady state model and gave equivalent dissociation constants (KD).
# Protein Expression and Purification. Human DDB1 (UniPro: Q16531) coding sequences were cloned into pFastBacHTB vector and were expressed in High5 cells using Bac-to-Bac baculovirus expression system (Thermo Fisher Scientific). […] DDB1 proteins were obtained from supernatant of cell lysates and purified through sequential application of Ni affinity (Ni-NTA column. Bio-Rad), and size-exclusion (Superdex 200 16/600GL column, GE Healthcare) column chromatography.
# Surface plasmon resonance (SPR) binding assay. All SPR studies were performed on a Biacore X100 plus or T200 instrument (GE Healthcare). Immobilization of purified His-DDB1 was carried out at 25° C. using a CM5 sensor chip. The surface was pre-equilibrated in HBS-EP running buffer (10 mM HEPES, pH7.4, 150 mM NaCl, 3 mM EDTA, 0.05% P20), then activated with EDC/NHS. His-DDB1 proteins were immobilized by amine coupling to a density of 11,000-13,000 resonance units (RUs) on flow cell FC2, whereas flow cell FC1 was used as reference. Both DDB1 immobilized and reference surfaces were deactivated with 1M ethanolamine.
# All interaction experiments were performed at 25° C. […] Compound Solutions were injected individually in multi-cycle kinetic format without regeneration (flow rate […], association time 120 s, dissociation time 120 s). Sensorgrams from reference surfaces and blank injections were subtracted from the raw data (double-referencing) and the data was solvent-corrected prior to analysis. All data were fit to steady state affinity model using Biacore Evaluation Software and gave equivalent dissociation constants (KD).
# Chain of Human DDB1 (Q16531 whole entry): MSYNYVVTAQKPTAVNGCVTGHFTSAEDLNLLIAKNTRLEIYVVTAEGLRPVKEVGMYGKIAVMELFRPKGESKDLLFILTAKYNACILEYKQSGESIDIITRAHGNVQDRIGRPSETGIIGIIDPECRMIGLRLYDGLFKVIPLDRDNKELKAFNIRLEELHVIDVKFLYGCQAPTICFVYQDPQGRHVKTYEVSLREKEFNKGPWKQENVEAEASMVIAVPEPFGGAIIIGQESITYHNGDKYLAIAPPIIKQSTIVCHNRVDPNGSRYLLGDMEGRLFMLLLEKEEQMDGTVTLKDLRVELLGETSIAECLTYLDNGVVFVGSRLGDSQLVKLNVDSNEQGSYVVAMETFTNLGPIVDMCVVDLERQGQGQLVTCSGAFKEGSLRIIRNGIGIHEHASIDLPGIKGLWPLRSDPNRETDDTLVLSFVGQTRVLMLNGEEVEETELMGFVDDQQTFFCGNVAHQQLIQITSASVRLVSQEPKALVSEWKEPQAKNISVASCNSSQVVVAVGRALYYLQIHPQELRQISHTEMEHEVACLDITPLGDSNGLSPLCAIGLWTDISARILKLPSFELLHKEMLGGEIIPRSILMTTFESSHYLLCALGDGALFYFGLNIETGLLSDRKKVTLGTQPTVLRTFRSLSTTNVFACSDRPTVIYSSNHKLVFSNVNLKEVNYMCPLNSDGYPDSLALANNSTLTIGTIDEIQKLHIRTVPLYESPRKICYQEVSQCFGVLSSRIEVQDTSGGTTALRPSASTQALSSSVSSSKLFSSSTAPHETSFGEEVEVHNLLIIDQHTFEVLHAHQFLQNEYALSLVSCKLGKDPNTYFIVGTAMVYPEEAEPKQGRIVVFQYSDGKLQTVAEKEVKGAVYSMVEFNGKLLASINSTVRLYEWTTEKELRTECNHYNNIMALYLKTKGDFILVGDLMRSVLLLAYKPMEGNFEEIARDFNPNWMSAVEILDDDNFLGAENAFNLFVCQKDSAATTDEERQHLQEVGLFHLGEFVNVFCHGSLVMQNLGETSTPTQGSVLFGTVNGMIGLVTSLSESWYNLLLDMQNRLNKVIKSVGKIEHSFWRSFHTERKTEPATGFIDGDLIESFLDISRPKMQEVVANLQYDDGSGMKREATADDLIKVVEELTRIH
row,Compound,pKd
1,SRLNRRASF [Peptide 7],4.00 to 4.70

# Same assay, conditions: SPR, DDB1 binding moieties with linkers and/or target protein binding moiety; read-out: Binding (Kd)
row,pKd,Compound
1,4.00 to 4.70,"CC(=O)Nc1cc(NCCCCCCCCCCNC(=O)C[C@@H]2N=C(c3ccc(Cl)cc3)c3c(sc(C)c3C)-n3c(C)nnc32)ccc1C(=O)Nc1nc(C)c([N+](=O)[O-])s1 [D-31, (S)-2-Acetamido-4-((10-(2-(4-(4-chlorophenyl)-2,3,9-trimethyl-6H-thieno[3,2-f][1,2,4]triazolo[4,3-a][1,4]diazepin-6-yl)acetamido)decyl)amino)-N-(4-methyl-5-nitrothiazol-2-yl)benzamide]"
2,4.00 to 4.70,"CC(=O)Nc1cc(NCCOCCOCCOCCOCCOCCOCCNC(=O)C[C@@H]2N=C(c3ccc(Cl)cc3)c3c(sc(C)c3C)-n3c(C)nnc32)ccc1C(=O)Nc1nc(C)c([N+](=O)[O-])s1 [D-37, (S)-2-Acetamido-4-((1-(4-(4-chlorophenyl)-2,3,9-trimethyl-6H-thieno[3,2-f][1,2,4]triazolo[4,3-a][1,4]diazepin-6-yl)-2-oxo-6,9,12,15,18,21-hexaoxa-3-azatricosan-23-yl)amino)-N-(4-methyl-5-nitrothiazol-2-yl)benzamide]"
3,4.00 to 4.70,"Cc1nc(NC(=O)c2ccccc2NC(=O)CCOCCOCCOCCN)sc1[N+](=O)[O-] [BL-2, 2-(3-(2-(2-(2-Aminoethoxy)ethoxy)ethoxy)propanamido)-N-(4-methyl-5-nitrothiazol-2-yl)benzamide]"

# Same assay, conditions: SPR, steady state affinity model, 25° C.; read-out: Binding (DDB1 binder activities, Kd)
row,pKd,Compound
1,4.00 to 4.70,"CC(=O)Nc1ccccc1C(=O)Nc1ncc(Cl)s1 [B-35, 2-Acetamido-N-(5-chlorothiazol-2-yl)benzamide]"
2,4.00 to 4.70,"CC(=O)Nc1ccccc1C(=O)Nc1nc(-c2ccccc2)cs1 [B-46, 2-acetamido-N-(4-phenylthiazol-2-yl)benzamide]"
3,> 4.70,"CC(=O)Oc1ccccc1C(=O)N(C)c1ncc([N+](=O)[O-])s1 [B-8, 2-(Methyl(5-nitrothiazol-2-yl)carbamoyl)phenyl acetate]"
4,4.00 to 4.70,"CCCC(=O)Nc1ccc(OC(C)=O)c(C(=O)Nc2ncc([N+](=O)[O-])s2)c1 [B-22, 4-Butyramido-2-((5-nitrothiazol-2-yl)carbamoyl)phenyl acetate]"
5,4.00 to 4.70,"COC(=O)Nc1ccccc1C(=O)Nc1ncc([N+](=O)[O-])s1 [B-65, methyl (2-((5-nitrothiazol-2-yl)carbamoyl)phenyl)carbamate]"
6,4.00 to 4.70,"O=C1CCCCN1c1ncc([N+](=O)[O-])s1 [B-99, 1-(5-Nitrothiazol-2-yl)piperidin-2-one]"
7,4.00 to 4.70,"O=C(Nc1ncc([N+](=O)[O-])s1)c1ccccc1C1CC1 [B-85, 2-cyclopropyl-N-(5-nitrothiazol-2-yl)benzamide]"
8,4.00 to 4.70,"CCCNC(=O)c1cccc(C(=O)Nc2ncc([N+](=O)[O-])s2)c1O [B-15, 2-hydroxy-N^1-(5-nitrothiazol-2-yl)-N^3-propylisophthalamide]"
9,< 4.00,"Cc1cc(N2CCOCC2)ccc1C(=O)Nc1ncc([N+](=O)[O-])s1 [B-162, 2-Methyl-4-morpholino-N-(5-nitrothiazol-2-yl)benzamide]"
10,> 4.70,"CNC(=O)Nc1ccccc1C(=O)Nc1ncc([N+](=O)[O-])s1 [B-66, 2-(3-methylureido)-N-(5-nitrothiazol-2-yl)benzamide]"
11,4.00 to 4.70,"O=C(Nc1ncc([N+](=O)[O-])s1)c1ccccc1Br [B-93, 2-Bromo-N-(5-nitrothiazol-2-yl)benzamide]"
12,4.00 to 4.70,"CCNc1cccc(C)c1C(=O)Nc1ncc([N+](=O)[O-])s1 [B-169, 2-(Ethylamino)-6-methyl-N-(5-nitrothiazol-2-yl)benzamide]"
13,4.00 to 4.70,"O=C1CCCCCCN1c1ncc([N+](=O)[O-])s1 [B-101, 1-(5-Nitrothiazol-2-yl)azocan-2-one]"
14,4.00 to 4.70,"O=C(Nc1ncc([N+](=O)[O-])s1)c1ccccc1C(F)(F)F [B-89, N-(5-Nitrothiazol-2-yl)-2-(trifluoromethyl)benzamide]"
15,4.00 to 4.70,"CC(=O)Nc1ccccc1C(=O)Nc1ncc(F)s1 [B-36, 2-Acetamido-N-(5-fluorothiazol-2-yl)benzamide]"
16,> 4.70,"CC(=O)Nc1ccccc1C(=O)Nc1ccc([N+](=O)[O-])cc1 [B-125, 2-Acetamido-N-(4-nitrophenyl)benzamide]"
17,4.00 to 4.70,"CC(=O)Oc1ccccc1C(=O)Nc1nc(C)c([N+](=O)[O-])s1 [B-9, 2-((4-Methyl-5-nitrothiazol-2-yl)carbamoyl)phenyl acetate]"
18,> 4.70,"Cc1cc(Br)ccc1C(=O)Nc1ncc([N+](=O)[O-])s1 [B-152, 4-Bromo-2-methyl-N-(5-nitrothiazol-2-yl)benzamide]"
19,4.00 to 4.70,"CCCCNc1ccc(C(=O)Nc2nc(Br)c([N+](=O)[O-])s2)c(-c2ccccc2)c1 [B-113, N-(4-Bromo-5-nitrothiazol-2-yl)-5-(butylamino)-[1,1′-biphenyl]-2-carboxamide]"
20,< 4.00,"Cc1cc(N(C)C)ccc1C(=O)Nc1ncc([N+](=O)[O-])s1 [B-167, 4-(Dimethylamino)-2-methyl-N-(5-nitrothiazol-2-yl)benzamide]"

row,pKd,Compound
1,> 4.70,"CCCCNc1ccc(C(=O)Nc2nc(Cl)c([N+](=O)[O-])s2)c(-c2ccccc2)c1 [B-112, 5-(Butylamino)-N-(4-chloro-5-nitrothiazol-2-yl)-[1,1′-biphenyl]-2-carboxamide]"
2,4.00 to 4.70,"CCCC(=O)Nc1cccc(C(=O)Nc2ncc([N+](=O)[O-])s2)c1OC(=O)CCC [B-24, 2-Butyramido-6-((5-nitrothiazol-2-yl)carbamoyl)phenyl butyrate]"
3,< 4.00,"COc1ccc(C(=O)Nc2ncc([N+](=O)[O-])s2)c(C)c1 [B-156, 4-Methoxy-2-methyl-N-(5-nitrothiazol-2-yl)benzamide]"
4,4.00 to 4.70,"O=C(O)CCc1ccccc1C(=O)Nc1ncc([N+](=O)[O-])s1 [B-88, 3-(2-((5-Nitrothiazol-2-yl)carbamoyl)phenyl)propanoic acid]"
5,> 4.70,"Cc1cnc(NC(=O)c2ccccc2C)s1 [B-175, 2-Methyl-N-(5-methylthiazol-2-yl)benzamide]"
6,4.00 to 4.70,"CC(=O)Nc1ccccc1C(=O)Nc1ccc(Cl)cn1 [B-54, 2-Acetamido-N-(5-chloropyridin-2-yl)benzamide]"
7,4.00 to 4.70,"CC(=O)Nc1ccccc1C(=O)Nc1ccc(Br)cc1 [B-59, 2-Acetamido-N-(4-bromophenyl)benzamide]"
8,4.00 to 4.70,"CCCCNc1ccc(C(=O)Nc2ncc([N+](=O)[O-])s2)c(Nc2ccccc2)c1 [B-108, 4-(Butylamino)-N-(5-nitrothiazol-2-yl)-2-(phenylamino)benzamide]"
9,4.00 to 4.70,"CCCCNc1ccc(NC(C)=O)c(C(=O)Nc2ncc([N+](=O)[O-])s2)c1 [B-149, 2-Acetamido-5-(butylamino)-N-(5-nitrothiazol-2-yl)benzamide]"
10,4.00 to 4.70,"Cc1ccc(C(=O)Nc2ncc([N+](=O)[O-])s2)c(C)c1 [B-172, 2,4-Dimethyl-N-(5-nitrothiazol-2-yl)benzamide]"
11,4.00 to 4.70,"CCCCNc1cccc(OC(C)=O)c1C(=O)Nc1ncc([N+](=O)[O-])s1 [B-19, 3-(Butylamino)-2-((5-nitrothiazol-2-yl)carbamoyl)phenyl acetate]"
12,4.00 to 4.70,"Cc1cc(Cl)ccc1C(=O)Nc1ncc([N+](=O)[O-])s1 [B-150, 4-chloro-2-methyl-N-(5-nitrothiazol-2-yl)benzamide]"
13,4.00 to 4.70,"CCCNC(=O)c1cccc(C(=O)Nc2ncc([N+](=O)[O-])s2)c1NC(C)=O [B-145, 2-Acetamido-N^1-(5-nitrothiazol-2-yl)-N^3-propylisophthalamide]"
14,4.00 to 4.70,"CCCCNc1ccc(C(=O)N(C)c2ncc([N+](=O)[O-])s2)c(OCC)c1 [B-107, 4-(Butylamino)-2-ethoxy-N-methyl-N-(5-nitrothiazol-2-yl)benzamide]"
15,> 4.70,"CC(=O)Nc1ccccc1C(=O)Nc1ncc(C(F)(F)F)s1 [B-38, 2-acetamido-N-(5-(trifluoromethyl)thiazol-2-yl)benzamide]"
16,4.00 to 4.70,"CCCCNc1ccc(C(=O)Nc2ncc(C#N)s2)c(-c2ccccc2)c1 [B-119, 5-(Butylamino)-N-(5-cyanothiazol-2-yl)-[1,1′-biphenyl]-2-carboxamide]"
17,< 4.00,"O=C(Nc1ncc([N+](=O)[O-])s1)c1ccccc1OC(F)(F)F [B-77, N-(5-nitrothiazol-2-yl)-2-(trifluoromethoxy)benzamide]"
18,4.00 to 4.70,"CC(=O)Nc1ccccc1C(=O)Nc1nc(C)c([N+](=O)[O-])s1 [B-27, 2-Acetamido-N-(4-methyl-5-nitrothiazol-2-yl)benzamide]"
19,< 4.00,"COc1ccccc1C(=O)Nc1ncc([N+](=O)[O-])s1 [B-73, 2-methoxy-N-(5-nitrothiazol-2-yl)benzamide]"

row,Compound,pKd
1,"CCCCNc1ccc(C(=O)Nc2ncc([N+](=O)[O-])s2)c(OC(C)=O)c1 [B-17, 5-(Butylamino)-2-((5-nitrothiazol-2-yl)carbamoyl)phenyl acetate]",> 4.70

# Same assay, conditions: read-out: Binding (DDB1 binder activities, Kd)
row,Compound,pKd
1,"CCCNC(=O)c1ccc(C(=O)Nc2ncc([N+](=O)[O-])s2)c(OC(C)=O)c1 [B-12, 2-((5-Nitrothiazol-2-yl)carbamoyl)-5-(propylcarbamoyl)phenyl acetate]",> 4.70
